The structures appear in SMILES notation.

Data set [1] has as its system Human Rhinovirus 14 (HRV14) in H1-HeLa cells. Kind of data set: H1-HeLa HRV-CTG 384-well Assay (Ex. Y), HRV14. The format is cell-based. To be noted: Rhinovirus B, 96 h; H1-HeLa cells, HRV14 MOI 1.0, 4 days, Celltiter-Glo; read-out: EC50 H1-HeLa_HRV14_HRV-CTG 384-well Assay (per Ex Y).
The nature of data set [2]: GI S9 stability (Ex. Z), human intestinal S9. It is filed as in vitro ADME. To be noted: pooled intestinal S9 fractions; human intestinal S9, 1.0 mg/mL protein, 2 μM substrate, pH 7.4; read-out: GIS9 Human T½ (per Ex. Z). The gist of the method: (§1)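 Pooled intestinal S9 at 1.0 mg/mL protein in PBS, pH 7.4, with substrate at 2 μM final, sampled at 0–120 min and quenched in methanol/acetonitrile containing labetalol. Remaining parent quantified by LC-MS peak area ratio. Half-life from first-order exponential decline fit.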

Data set [3] is described as follows: GI S9 stability (Ex. Z), rat intestinal S9. It is filed as in vitro ADME. To be noted: pooled intestinal S9 fractions; rat intestinal S9, 1.0 mg/mL protein, 2 μM substrate, pH 7.4; read-out: GIS9 Rat T½ (per Ex. Z). The gist of the method: as §1
Data set [4] concerns Human Rhinovirus 1B (HRV1B) in H1-HeLa cells. Kind of data set: H1-HeLa HRV-CTG 384-well Assay (Ex. Y), HRV1B. It is filed as cell-based. Particulars: Rhinovirus A, 96 h; H1-HeLa cells, HRV1B MOI 0.5, 4 days, Celltiter-Glo; read-out: EC50 H1-HeLa_HRV1B_HRV-CTG 384-well Assay (per Ex. Y).

On to `CC(C)C(=O)Nc1ncnn2c([C@@H]3O[C@](C#N)(CO)[C@@H](O)[C@H]3O)ccc12` [Compound 30, N-(7-((2S,3R,4S,5R)-5-cyano-3,4-dihydroxy-5-(hydroxymethyl)tetrahydrofuran-2-yl)pyrrolo[2,1-f][1,2,4]triazin-4-yl)isobutyramide], for which the EC50 in data set [1] amounted to 36.2 µM; in data set [4], 27.5 µM. Moreover, the half-life at 2 μM in data set [2] and in data set [3] was 13.2 h each time.
